Assay results published in patent publication US9243034B2, “Glycogen synthase kinase-3 inhibitors” (Ramot at Tel-Aviv University Ltd., priority 2011, dated 2016).
Where a SMILES comes first, the peptide text is derived from it. [ ]: non-standard residue; d: D form. The star is where a group is joined. Myristoyl = CCCCCCCCCCCCCC(=O)*; pS = N[C@@H](COP(=O)(O)O)C(=O)O

Tests used:
β-catenin [1] = assay: Hippocampus β-catenin levels in mice after nasal administration; assay type: in vivo, C57BL/6J mice; details: 60 μg peptide/mouse/day, 3 days, vs non-treated
Experimental: C57BL/6J mice (12 week old; obtained from Animal Facilities at Tel Aviv University) were treated with L803-mts or L806-mts via a nasal administration (60 μg peptide/per mouse/per day) for 3 days. Non-treated animals served as control. Brains were removed and hippocampus was homogenized in ice-cold ‘buffer G’(20 mM Tris pH 7.5, 10 mM β-glycerophosphate, 10% glycerol, 1 mM EGTA, 1 mM EDTA, 50 mM NaF, 5 mM sodium pyrophosphate, 0.5 mM orthovanadate, 1 mM benzamidine, 5 μg/ml leupeptin, 25 μg/ml aprotinin, 5 μg/ml pepstatin, and 0.5% Triton X100). Equal amounts of proteins (50 μg) were subjected to gel electrophoresis, transferred to nitrocellulose membranes, and immunoblotted with anti-β-catenin antibody. Hippocampus β-catenin levels were determined by western blot analysis as described.

[2] = system: heat shock factor-1 (HSF-1); assay: Phosphorylation of HSF-1 in COS-7 cells, Western blot; assay type: cell-based; details: FIG. 6C
Experimental: L806-mts-treated COS-7 cells were also tested for phosphorylation of the GSK-3 substrate heat shock factor-1 (HSF-1).

GSK-3β = molecular target: T1, GSK-3β (Homo sapiens, UniProt P49841); assay: In vitro kinase assay with GSK-3β in the presence of peptide inhibitor; assay type: biochemical
T1 construct: made in house; host or cells: HEK-293 (transient transfection, pCMV4 vector; DE-52 partial purification)
Experimental: (§1) (0.5 μCi/assay) for 15 minutes.
The ability of each peptide to inhibit GSK-3β was then determined by in vitro kinase assays as described hereinabove.

β-catenin [3] = assay: β-catenin levels in COS-7 cells, Western blot; assay type: cell-based; details: various concentrations, 5 hour, FIG. 6B
Experimental: In further studies, COS-7 cells were treated with L806-mts at various concentrations for 5 hour.

[4] = system: CREB (Ser 129) and N′IRS-1 (Ser 332); assay: Phosphorylation of CREB and N'IRS-1 in HEK-293 cells expressing GSK-3β proteins; assay type: cell-based; details: forskolin or PMA treated, compared with WT-GSK-3β
Experimental: The role of Phe 93 in substrate binding by employing a cellular system and protein substrates (i.e., not peptides) was further explored. To this end, the WT-GSK-3β and F93A mutant were expressed in HEK-293 cells together with GSK-3 substrates CREB or N′IRS-1 (the N-terminal region of IRS-1). Because GSK-3 requires pre-phosphorylation of its substrates, the cells were treated with forskolin to enhance CREB phosphorylation via activation of cAMP dependent kinase (PKA), or with phorbol ester (PMA) to enhance N′IRS-1 phosphorylation via activation of protein kinase C (PKC). The phosphorylation of CREB at serine 129, and N′IRS-1 at serine 332 (both GSK-3 phosphorylation sites) was then examined.
Thus, HEK293 cells were co-transfected with WT-GSK-3β or F93A plasmids together with construct coding for CREB. Cells were treated with forskolin (10 μM, 1 hour), and cell extracts were subjected to western blot analysis using anti-phospho CREB (Ser 129/133) antibody, as presented in FIG. 1D. Expression levels of CREB and GSK-3 proteins are indicated.
Similar assay was conducted using N′IRS-1 cDNA construct instead of CREB, and cells were treated with PMA (100 nM, 30 minutes). Expression levels of N′IRS-1 and GSK-3β are indicated. Results are means of three independent experiments±SEM.

pIRS-1 = assay: In vitro kinase assay of GSK-3β mutants, substrate pIRS-1; assay type: biochemical; details: WT set to 100%; mean of 2-3 experiments ± SEM
Experimental: (§2) HEK-293 cells were grown in Dulbecco's Modified Eagle's Medium (DMEM), supplemented with 10% fetal calf serum (FCS), 2 mM glutamine, 100 units/ml penicillin, and 100 μg/ml streptomycin. HEK-293 cells were transiently transfected with indicated constructs, using calcium phosphate method as described [Ilouz et al. (2006) supra]. Cells were lysed in ice-cold buffer G (20 mM Tris-HCl, pH 7.5, 10 mM β-glycerophosphate, 10% glycerol, 1 mM EGTA, 1 mM EDTA, 50 mM NaF, 5 mM sodium pyrophosphate, 0.5 mM orthovanadate, 1 mM benzamidine, 10 μg/ml leupeptin, 5 μg/ml aprotinin, 1 μg/ml pepstatin, and 0.5% Triton X100). Cell extracts were centrifuged for 30 minutes at 15,000×g. Supernatants were collected, and equal amounts of proteins were boiled with SDS sample buffer and subjected to gel electrophoresis (7.5-12% polyacrylamide gel), transferred to nitrocellulose membranes, and immunoblotted with indicated antibodies. For partial purification, cells were lysed in buffer H (20 mM Tris, pH 7.3, 1 mM EGTA, 1 mM EDTA, 1 mM orthovanadate, 25 μg/ml leupeptin, 25 μg/ml aprotinin, and 25 μg/ml pepstatin A, 500 nM microcystine LR, and 0.25% Triton X100). The lysates were centrifuged at 15,000×g. The resulting supernatants were passed through DE-52 (Whatman, Maidstone, England) mini-columns that were equilibrated with buffer H. GSK-3β proteins were eluted with the same buffer containing 0.02 M NaCl. Equal amounts of proteins were used for in vitro kinase assays. In all experiments, GSK-3 mutants were expressed at levels at least 5-fold higher than levels of the endogenous GSK-3β as determined by western blot analysis.
as §1
(§3) The GSK-3β mutants were partially purified by ion exchange chromatography, and their abilities to phosphorylate peptide substrates were tested in in vitro kinase assays. The substrates were: pIRS-1, p9CREB, and pGS-1, phosphorylated peptides derived from the insulin receptor substrate-1 (IRS-1), cAMP responsive element binding protein (CREB), and glycogen synthase, respectively.
(§4) The results are presented in Table 1, as the percentage of substrate phosphorylation (indicated peptides, pIRS-1, p9CREB and pGS-1) obtained with WTGSK-3β which was set to 100%, and are mean of 2-3 independent experiments each performed in duplicates±SEM.

pGS-1 = assay: In vitro kinase assay of GSK-3β mutants, substrate pGS-1; assay type: biochemical; details: WT set to 100%; mean of 2-3 experiments ± SEM
Experimental: as §2, §1, §3, §4

p9CREB = assay: In vitro kinase assay of GSK-3β mutants, substrate p9CREB; assay type: biochemical; details: WT set to 100%; mean of 2-3 experiments ± SEM
Experimental: as §2, §1, §3, §4

T1 sequence (P49841 1-433 isoform P49841-2): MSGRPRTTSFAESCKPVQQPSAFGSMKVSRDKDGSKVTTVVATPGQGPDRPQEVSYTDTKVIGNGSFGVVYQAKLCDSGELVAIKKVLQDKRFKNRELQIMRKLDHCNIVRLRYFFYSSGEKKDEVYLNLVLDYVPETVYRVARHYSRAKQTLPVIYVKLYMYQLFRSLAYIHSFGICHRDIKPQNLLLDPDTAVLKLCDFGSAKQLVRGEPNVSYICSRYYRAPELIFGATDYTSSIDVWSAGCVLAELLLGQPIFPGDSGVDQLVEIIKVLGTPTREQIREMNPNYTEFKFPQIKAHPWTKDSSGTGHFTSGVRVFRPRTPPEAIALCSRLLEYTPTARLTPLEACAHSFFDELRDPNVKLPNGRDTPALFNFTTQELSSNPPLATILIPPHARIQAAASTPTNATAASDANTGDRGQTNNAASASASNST

Substrate phosphorylation (% of WTGSK-3β), pIRS-1 (pIRS-1) | Substrate phosphorylation (% of WTGSK-3β), pGS-1 (pGS-1) | Substrate phosphorylation (% of WTGSK-3β), p9CREB (p9CREB) | Molecule | Hippocampus β-catenin levels (β-catenin [1]) | Phosphorylation of HSF-1 [2] | IC50 (GSK-3β) [µM] | Levels of β-catenin (β-catenin [3]) | Phosphorylation of CREB and N′IRS-1 in cells [4]
– | – | – | CCCCCCCCCCCCCC(=O)NCC(=O)N[C@@H](CCCCN)C(=O)N[C@@H](CCC(=O)O)C(=O)N[C@@H](C)C(=O)N1CCC[C@H]1C(=O)N1CCC[C@H]1C(=O)N[C@@H](C)C(=O)N1CCC[C@H]1C(=O)N1CCC[C@H]1C(=O)N1CCC[C@H]1C(=O)N[C@@H](COP(=O)(O)O)C(=O)N1CCC[C@H]1C(=O)O [L806-mts] (Myristoyl-GKEAPPAPPP[pS]P-OH; C-terminus assumed) | elevation in β-catenin levels | Reduced phosphorylation | ~1 | Elevation of β-catenin | –
42 ± 13 % of WTGSK-3β | 13 ± 7 % of WTGSK-3β | 46 ± 2 % of WTGSK-3β | F93A: GSK-3β mutant, F93 replaced by alanine, SEQ ID NO:9 (protein, GSK-3 beta, F93A mutant) MSGRPRTTSFAESCKPVQQPSAFGSMKVSRDKDGSKVTTVVATPGQGPDRPQEVSYTDTKVIGNGSFGVVYQAKLCDSGELVAIKKVLQDKRAKNRELQIMRKLDHCNIVRLRYFFYSSGEKKDEVYLNLVLDYVPETVYRVARHYSRAKQTLPVIYVKLYMYQLFRSLAYIHSFGICHRDIKPQNLLLDPDTAVLKLCDFGSAKQLVRGEPNVSYICSRYYRAPELIFGATDYTSSIDVWSAGCVLAELLLGQPIFPGDSGVDQLVEIIKVLGTPTREQIREMNPNYTEFKFPQIKAHPWTKDSSGTGHFTSGVRVFRPRTPPEAIALCSRLLEYTPTARLTPLEACAHSFFDELRDPNVKLPNGRDTPALFNFTTQELSSNPPLATILIPPHARIQAAASTPTNATAASDANTGDRGQTNNAASASASNST | – | – | – | – | did not enhance the phosphorylation
